Patent US10111901B2, “Beta-glucan in combination with anti-cancer agents affecting the tumor microenvironment” (Biothera, Inc., priority 2014, dated 2018)

Assays:
mMoDC = test: Flow cytometry of maturation markers on mature monocyte-derived dendritic cells (mMoDC); type: cell-based, human
Procedure: Given that macrophages and dendritic cells are the two key antigen presenting cell types that bridge innate and adaptive immunity, the phenotypic and functional effect of soluble β-glucan was also evaluated on human monocyte-derived dendritic cells (MoDC). Monocytes enriched from soluble β-glucan- or vehicle-treated whole blood were cultured in media containing the appropriate cytokines, GM-CSF plus IL-4, for differentiation of dendritic cells. Steps included in the method for in vitro culture and characterization of human MoDCs are outlined below.
The phenotypic and functional evaluation of mMoDC prepared from soluble β-glucan-treated whole blood of a high binder and low binder was carried out. mMoDCs from a high binder and a low binder were prepared as described above. mMoDCs were evaluated for CD80, CD83, CD86 and HLA-DR expression by flow cytometry, and median MFI was calculated for isotype control staining and surface antigen staining and the results are shown in Table 7.
MoDC derived from β-glucan-treated monocytes are more mature even in immunosuppressive conditions. MoDCs were prepared as described above. TCM was added to account for 70% of the volume of the culture on day 0 and was present throughout the culturing period. mMoDCs cultured in the presence of TCM were subsequently evaluated for phenotypic changes.

CD4 T cells = test: MCM-CD4 T cell proliferation and surface marker study; type: cell-based, human
Procedure: For MCM-CD4 T cell proliferation study, CD3 & CD28-stimulated, CFSE-labeled CD4 T cells were cultured with 50% MCM. T cell proliferation was measured on day 11 as described above. Culture supernatants of the MCM-CD4 T cell co-culture were collected for subsequent cytokine analysis. MCM-CD4 T cell surface marker evaluation was performed as described above.
To determine whether soluble factors secreted from β-glucan-treated M2 macrophages are required, measurements were carried out of CD4 T cell proliferation co-cultured with β-glucan-treated M2 macrophages MCM (50% of volume) and surface activation marker modulation on T cells incubated with the MCM were observed. FIG. 9 is representative of 2 different experiments. […] In addition, the CD4 T cells cultured in vehicle- and β-glucan-treated M2 macrophage MCM were evaluated for modulation of co-stimulatory or co-inhibitory molecules (CD80, CD28, CTLA-4, 4-1BB and PD-1).
To test this, M2 macrophages were prepared as described above with a few modifications. The whole blood of a low binder was spun down to remove the plasma and then the cells were reconstituted with serum obtained from a high binder. The reconstituted blood was treated with vehicle or β-glucan (25 μg/mL) for 2 hours at 37° C. The monocytes were evaluated for binding by using anti-β-glucan specific monoclonal antibody and subsequent flow cytometry.

CD33+ MDSC = test: MDSC in peripheral blood of a case study subject treated with IMPRIME PGG; type: in vivo, human; details: post-infusion, cycle 8, day 1; within hours
Excerpt: Blood was drawn at various times from a case study subject undergoing treatment with IMPRIME PGG and analyzed for the presence of MDSC. The first blood draw was done pre-infusion, cycle 8, day 1. […] A second blood draw was done post-infusion, cycle 8, day 1. […] The last blood sample was drawn pre-infusion, cycle 8, day 15. The CD33^+ MDSC are again present in the peripheral blood.

CD33+CD11b+ cells (MDSC) = test: Suppression of T cell proliferation by cord blood-derived MDSC; type: cell-based, human; details: 2:1 ratio of CD8 T cells to MDSCs, vs citrate buffer
Procedure: In another study, human cord blood was enriched for CD34^+ cells and cultured for 9 days to produce CD33^+CD11b^+ cells (MDSC). The MDSC were then treated with soluble β-glucan or citrate buffer (control) and evaluated for their ability to suppress T cell proliferation. The T cell proliferation assay was carried out at a 2:1 ratio of CD8 T cells to treated or untreated MDSCs.

[1] = MoDC cultured in TCM, immunosuppressive conditions

## β(1,6)-[poly-(1,3)-D-glucopyranosyl]-poly-β(1,3)-D-glucopyranose [β-glucan]
mMoDC; MoDC cultured in TCM (70% of volume, from day 0), immunosuppressive conditions
  CD80 median MFI: 465
mMoDC; [1]
  CD83 median MFI: 607
  CD86 median MFI: 15797
  HLA-DR median MFI: 361
mMoDC; mMoDCs, high binder
  CD80 median MFI: 744
  CD83 median MFI: 466
  CD86 median MFI: 10759
  HLA-DR median MFI: 7049
mMoDC; mMoDCs, low binder
  CD80 median MFI: 1197
  CD83 median MFI: 2924
  CD86 median MFI: 77749
  HLA-DR median MFI: 2960
CD4 T cells; CD4 T cells cultured in β-glucan-treated M2 macrophage MCM (data not shown)
  T cell markers (CD80, CD28, CTLA-4, 4-1BB and PD-1): no change
CD4 T cells; MCM of M2 macrophages of a low binder crossed-over with high binder's serum, 25 μg/mL
  CD4 T cell proliferation: significantly higher ability to enhance
CD4 T cells; β-glucan-treated M2 macrophage MCM (50% of volume) vs vehicle-treated MCM
  CD4 T cell proliferation: significantly higher ability to enhance
CD33+ MDSC
  CD33+ MDSC in peripheral blood: transiently disappear
CD33+CD11b+ cells (MDSC)
  suppression of T cell proliferation by MDSC: less suppressive
